According to patent US6395752B1, “Method of treating depression using 1-threo-methylphenidate” (Pharmaquest Limited, priority 1999, dated 2002):
Marks after values point to notes of the source that are not given here.

Legend:
[1] = after oral administration of the racemic drug; cited from earlier work
[2] = plasma; i.v. 10 mg d1-MPH; 11 healthy male volunteers; mean ± SD; cited from earlier work
[3] = Profile of Mood State (POMS) rating scale, randomized 4-phase cross-over study, intravenous administration; assay type: in vivo, healthy male volunteers; settings: i.v.; for Rank order of ratings for Tension, Depression and Anger: three components of Dysphoria, same order in each case; for Vigor ratings: POMS Vigor-Activity
Source text: The Profile of Mood State (POMS) rating scale was used to estimate pharmacodynamic factors including Anger-Hostility, Confusion-Bewilderment, Depression-Dejection, Fatigue-Inertia, Tension-Anxiety, and Vigor-Activity. In addition composite scores were also produced for “Energy” (“Vigor-Activity” minus “Fatigue-Inertia”) and “Dysphoria” (“Anger-Hostility” plus “Depression-Rejection” plus “Tension-Anxiety”).

[4] = oral, cited from earlier work

Structure (SMILES)	Absolute bioavailability (F) [1]	t1/2 [2]	Rank order of ratings for Tension, Depression and Anger [3]	Vigor ratings ([3]; healthy male volunteers)	Effect on "Energy" composite score ([3]; healthy male volunteers)	POMS rating for Fatigue-Inertia ([3]; healthy male volunteers)	Hamilton depression scale decrease, subjects with minimal decrease ([4]; 3 subjects)	Hamilton depression scale decrease, subjects with marked decrease ([4]; 7 subjects)	Benefit in depressed patients ([4]; older, medically ill depressed patients, n=16)
COC(=O)[C@@H](c1ccccc1)[C@@H]1CCCCN1 [1-MPH, 2S,2′S-methyl 2-phenyl-2-(2′-piperidyl) acetate]	0.05	3.61 ± 1.12^b	1-MPH<placebo<d1-MPH<d-MPH						
COC(=O)[C@H](c1ccccc1)[C@H]1CCCCN1 [d-MPH, d-threo-methylphenidate]			1-MPH<placebo<d1-MPH<d-MPH	significantly different from those for 1-MPH and placebo	not strongly energizing	significantly different from those after 1-MPH			
COC(=O)[C@H](c1ccccc1)[C@H]1CCCCN1 [d1-MPH, d1-threo-methylphenidate]			1-MPH<placebo<d1-MPH<d-MPH	significantly different from those for 1-MPH and placebo	enhanced		< 30%	> 55%	statistically and clinically significant
